Data published in ChEMBL document CHEMBL1132913, “Conformationally-restricted ligands for the histamine H1 receptor” (Bioorg Med Chem Lett, 2000).
Active and inactive are the calls of the source. The calls are words filed in the database; no cut-off is given here.

Tests used:
[1] = Partition coefficient (logP); type: physicochemical; conditions: octanol/water
[2] = target: T1, Histamine H1 receptor (Cavia porcellus, UniProt P31389); assay: In vitro antagonistic activity at the Histamine H1 receptor in guinea pig ileum; type: functional, tissue-based
T1 sequence (P31389 whole entry): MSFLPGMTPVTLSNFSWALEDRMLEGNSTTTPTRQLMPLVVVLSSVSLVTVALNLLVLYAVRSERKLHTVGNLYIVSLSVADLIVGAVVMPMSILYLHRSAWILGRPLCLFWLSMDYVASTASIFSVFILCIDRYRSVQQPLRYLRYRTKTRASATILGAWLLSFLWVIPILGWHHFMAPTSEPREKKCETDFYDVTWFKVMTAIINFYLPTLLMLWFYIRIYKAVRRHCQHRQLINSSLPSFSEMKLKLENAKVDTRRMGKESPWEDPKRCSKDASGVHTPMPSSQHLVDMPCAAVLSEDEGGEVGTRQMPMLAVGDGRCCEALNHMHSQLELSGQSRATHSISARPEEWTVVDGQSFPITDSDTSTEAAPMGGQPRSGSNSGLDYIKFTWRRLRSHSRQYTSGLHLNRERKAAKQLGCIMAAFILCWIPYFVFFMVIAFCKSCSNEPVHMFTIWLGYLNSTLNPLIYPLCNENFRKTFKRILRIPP

[3] = system: Mus musculus; assay: In vivo activity of compound at 10 mg/kg in 48/80 challenge expressed as number of mice surviving for more than 240 min; 0/2; type: functional; conditions: 4 h
[4] = system: Mus musculus; assay: In vivo activity of compound at 40 mg/kg in 48/80 challenge expressed as number of mice surviving for more than 240 min; 0/2; type: functional; conditions: 4 h
[5] = species on record: Mus musculus; assay: Ability of compound to protect mice against a lethal dose of 48/80; No activity; type: functional, organism-based
[6] = species on record: Mus musculus; assay: Effective dose of compound in the […] challenge in mice.; type: functional
[7] = system: Mus musculus; assay: In vivo activity of compound at 10 mg/kg in 48/80 challenge expressed as number of mice surviving for more than 240 min; 1/2; type: functional; conditions: 4 h
[8] = system: Mus musculus; assay: In vivo activity of compound at 40 mg/kg in 48/80 challenge expressed as number of mice surviving for more than 240 min; 2/2; type: functional; conditions: 4 h
[9] = system: Mus musculus; assay: In vivo activity of compound at 40 mg/kg in 48/80 challenge expressed as number of mice surviving for more than 240 min; 1/2; type: functional; conditions: 4 h
[10] = species on record: Mus musculus; assay: Effect of compound in the […] challenge in mice; No activity; type: functional, organism-based
[11] = species on record: Mus musculus; assay: Compound was tested for protection against 48/80 challenge in mice; No activity with both mice dying at 36 min; type: functional, organism-based
[12] = system: Mus musculus; assay: Effective dose (in vivo) by administering the compound in mice was determined; type: functional
[13] = target: T1, Histamine H1 receptor; assay: In vitro antagonistic activity at the Histamine H1 receptor in guinea pig ileum; No inhibition; type: functional, tissue-based

Work on `c1ccc(CN2CCC3C(=C(c4ccccc4)c4ccccc43)C2)cc1` (centres undefined) yielded a logP [1] of 7.03, an IC50 [2] of 10.8 nM and a survival at 10 mg/kg [3] of 0%. The survival at 40 mg/kg [4] was 0%.

For `CCN1CC[C@@](O)(c2ccccc2)[C@H](C(=O)c2ccccc2)C1`, the IC50 [2] was 23 nM and the Activity [5] was “inactive”.

With `CN1CC[C@H]2c3ccccc3C(c3ccccc3)[C@H]2C1` (single isomer, unassigned) the ED50 [6] was 40 mg/kg.

In the case of `CN1CC[C@@](O)(c2ccccc2)[C@H](C(=O)c2ccccc2)C1`, the IC50 [2] is reported as 26 nM and the Activity [5] is reported as “inactive”.

Compound `c1ccc(CCN2CCC3=C(C2)C(c2ccccc2)c2ccccc23)cc1` (centres undefined) has a logP ([1]; read-out: logP) of 6.59, a survival at 10 mg/kg [3] of 0% and a survival at 40 mg/kg [4] of 0%.

In the case of `CN1CCC2C(=C(c3ccccc3)c3ccccc32)C1` (centres undefined), the logP ([1]; read-out: logP) is reported as 5.23, the IC50 [2] is reported as 28 nM and the survival at 10 mg/kg [7] is reported as 50%. For the same compound, the survival at 40 mg/kg [8] was 100%.

Work on `CN1CC=C2C(=C(c3ccccc3)c3ccccc32)C1` yielded a logP ([1]; read-out: logP) of 4.94, an IC50 [2] of 220 nM and a survival at 10 mg/kg [3] of 0%. For the same compound, the survival at 40 mg/kg [4] was 0%.

`c1ccc(CCN2CCC3C(=C(c4ccccc4)c4ccccc43)C2)cc1` (centres undefined) gave a logP ([1]; read-out: logP) of 7.43, a survival at 10 mg/kg [3] of 0% and a survival at 40 mg/kg [9] of 50%.

`c1ccc(CN2CCC3=C(C2)C(c2ccccc2)c2ccccc23)cc1` (centres undefined) gave a logP ([1]; read-out: logP) of 6.02, an IC50 [2] of 470 nM and a survival at 10 mg/kg [3] of 0%. The survival at 40 mg/kg [4] was 0%.

For `CCc1ccc([C@@H]2c3cc(CC)ccc3[C@@H]3CCN(C)C[C@H]23)cc1`, the ED50 [10] was “inactive”.

In the case of `CCN1CCC2C(=C(c3ccccc3)c3ccccc32)C1` (centres undefined), the logP ([1]; read-out: logP) is reported as 5.76 and the survival at 40 mg/kg [8] is reported as 100%.

With `CN1CC[C@H]2c3ccccc3[C@@H](c3ccccc3)[C@H]2C1` the Activity [11] was “inactive”.

In the case of `CCc1ccc(C2C3=C(CCN(C)C3)c3ccc(CC)cc32)cc1` (centres undefined), the survival at 10 mg/kg [3] is reported as 0% and the survival at 40 mg/kg [4] is reported as 0%.

Work on `C1=C2C(=C(c3ccccc3)c3ccccc32)CNC1` yielded a logP ([1]; read-out: logP) of 4.41, an IC50 [2] of 53 nM and an ED50 [12] of 40 mg/kg. For the same compound, the survival at 40 mg/kg [4] was 50% and the survival at 40 mg/kg [9] was 50%.

With `CCN1CC=C2C(=C(c3ccccc3)c3ccccc32)C1` the IC50 [13] was “Not Active”.

`CCN1CCC2=C(C1)C(c1ccccc1)c1ccccc12` (centres undefined) showed a logP ([1]; read-out: logP) of 4.92, an IC50 [2] of 17 nM and a survival at 10 mg/kg [3] of 0%. It also gave a survival at 40 mg/kg [9] of 50%.

Compound `CN1CCC2=C(C1)C(c1ccccc1)c1ccccc12` (centres undefined) [PHENINDAMINE] has an IC50 [2] of 36 nM.
